Laboratory results taken from patent US20120141586A1, “THROMBIN RECEPTOR ANTAGONIST AND CLOPIDOGREL FIXED DOSE TABLET” (priority 2009, published 2012).
“Also recorded” adds a separate entry of the source.

Key:
thrombin receptor = biological target: T1, thrombin receptor (Homo sapiens, UniProt P25116); settings: cited from earlier work
T1 sequence (P25116 22-425): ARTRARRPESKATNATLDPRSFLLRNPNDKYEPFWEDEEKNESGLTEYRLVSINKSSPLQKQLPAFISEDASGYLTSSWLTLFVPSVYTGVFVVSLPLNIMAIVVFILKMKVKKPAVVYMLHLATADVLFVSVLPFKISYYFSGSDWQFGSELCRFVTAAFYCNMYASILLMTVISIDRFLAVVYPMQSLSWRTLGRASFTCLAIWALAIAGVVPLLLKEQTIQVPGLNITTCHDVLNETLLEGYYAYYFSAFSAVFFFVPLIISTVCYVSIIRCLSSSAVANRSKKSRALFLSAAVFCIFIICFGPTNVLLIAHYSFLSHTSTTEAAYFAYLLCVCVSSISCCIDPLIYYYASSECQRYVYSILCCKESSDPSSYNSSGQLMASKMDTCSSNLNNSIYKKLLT

[1] = Compatibility studies between clopidogrel premix and 530348 bisulfate / free base
Source text: b. […] Clopidogrel is known to degrade under acidic and alkaline conditions. […] To test this hypothesis, the above studies were repeated in the presence of 530348 free base.

[2] = forced degradation data generated at Dr. Reddy's Lab; cited from earlier work

Row | Compound | Selectivity (thrombin receptor) | Thrombin receptor antagonist activity (potency) (thrombin receptor) | Extent of clopidogrel degradation ([1]; bisulfate salt compared to 530348 free base (FIG. 2)) | Clopidogrel degradation ([1]; in the presence of 530348 bisulfate) | Susceptibility of clopidogrel to degradation [2]
1 | CCOC(=O)N[C@@H]1CC[C@@H]2[C@@H](C1)C[C@H]1C(=O)O[C@H](C)[C@H]1[C@H]2/C=C/c1ccc(-c2cccc(F)c2)cn1 [SCH 530348, ethyl[(1R,3aR,4aR,6R,8aR,9S,9aS)-9-[(E)-2-[5-(3-fluorophenyl)-2-pyridinyl]ethenyl]dodecahydro-1-methyl-3-oxonaphtho[2,3-c]furan-6-yl]carbamate] | good | good | – | – | –
2 | CCOC(=O)N[C@@H]1CC[C@@H]2[C@@H](C1)C[C@H]1C(=O)O[C@H](C)[C@H]1[C@H]2/C=C/c1ccc(-c2cccc(F)c2)cn1 [SCH 530348 bisulfate] | good | good | – | – | –
3 | COC(=O)[C@H](c1ccccc1Cl)N1CCc2sccc2C1 [clopidogrel] | – | – | greater in the presence of the bisulfate salt | significant degradation; also recorded: degrades | susceptible to degradation upon exposure to heat, humidity, and oxygen
